Three compounds from patent publication US12521395B2, “Gem-disubstituted heterocyclic compounds and their use as IDH inhibitors” (NERVIANO MEDICAL SCIENCES S.R.L., priority 2019, dated 2026) can be followed below.

Structures are written as SMILES.

One assay has as its target IDH1 wild type enzyme (Homo sapiens, UniProt O75874). The assay is described as follows: Enzymatic assay for IDH1 wild-type (NADPH forming assay). The class given is biochemical. To be noted: 0.016 nM IDH1WT, 15 min preincubation. On the procedure:
IDH1WT enzymatic activity converting isocitric acid to alpha-ketoglutarate is measured using a NADPH forming assay. In the assay the forming cofactor is measured in continuous with the addition of a catalytic excess of diaphorase and resazurin, to generate a fluorescent signal in proportion to the amount of NADPH forming.
Compounds were preincubated with the enzyme, then the reaction was started by the addition of NADP+, isocitrate, diaphorase and a corresponding substrate, resazurin. Diaphorase reduces resazurin to the highly fluorescent resorufin with the concomitant oxidation of NADPH to NADP. Specifically, 0.2 μL of test compound, previously serially diluted 1 to 3, >10 experimental points from 1 mM in DMSO, was added to 0.016 nM IDH1WT enzyme in 10 μL of Assay Buffer (150 mM NaCl, 50 mM Tris-HCl pH 7.6, 10 mM MgCl2, 0.001% Triton X-100, 4 mM β-mercaptoethanol); the mixture is incubated for 15 minutes at room temperature. The reaction is started with the addition of 10 μL of Substrate Mix (400 μM NADP^+, 40 μM iso-citrate, 5 ugr/mL Diaphorase and 7 μM resazurin in Assay Buffer), the mixture is incubated at room temperature and the reaction is reading on a ViewLux as platereader at Ex544/Em590 in continuous.

The target in the next assay is IDH1^R132H (Homo sapiens, UniProt O75874, R132H). The assay is described as follows: NADPH depletion assay (diaphorase/resazurin), IDH1 R132H. In kind it is biochemical. To be noted: 15 min preincubation, 60 min reaction, room temperature. On the procedure:
(§1) IDH mutated enzyme activity converting alpha-ketoglutarate to 2-hydroxyglutaric acid is measured using a NADPH depletion assay. In the assay the remaining cofactor is measured at the end of the reaction with the addition of a catalytic excess of diaphorase and resazurin, to generate a fluorescent signal in proportion to the amount of NADPH remaining. IDH1 WT enzyme as well as mutated isoforms IDH1^R132H, IDH1^R132C, and IDH2^R172K enzymes are commercially available proteins (see e.g. Sino Biological, Abcam, Active Motif or Creative BioMart).
(§2) IDH1^R132H homodimer enzyme are diluted to 8 nM, in 10 μL of Assay Buffer (150 mM NaCl, 50 mM Tris-HCl pH 7.6, 10 mM MgCl2, 0.001% Triton X-100, 4 mM β-mercaptoethanol); 0.2 μL of test compound, previously serially diluted 1 to 3, >10 experimental points from 1 mM in DMSO, is added and the mixture is incubated for 15 minutes at room temperature. The reaction is started with the addition of 10 μL of Substrate Mix (12 μM NADPH, 3.4 mM alpha-ketoglutarate in Assay Buffer) and the mixture is incubated for 60 minutes at room temperature. The reaction is terminated with the addition of 5 μl of Detection Buffer (100 μg/mL diaphorase, 30 μM resazurin, in IX Assay Buffer), and is incubated for 15 minutes before reading on a ViewLux as platereader at Ex544/Em590.

In a further assay the target is IDH1^R132C (Homo sapiens, UniProt O75874, R132C). The assay is described as follows: NADPH depletion assay (diaphorase/resazurin), IDH1 R132C. The class given is biochemical. To be noted: IDH1^R132C 2 nM, alpha-ketoglutarate 0.14 mM; read-out: IDH1^R132C IC50.
Sequence of IDH1^R132C (O75874 whole entry R132C): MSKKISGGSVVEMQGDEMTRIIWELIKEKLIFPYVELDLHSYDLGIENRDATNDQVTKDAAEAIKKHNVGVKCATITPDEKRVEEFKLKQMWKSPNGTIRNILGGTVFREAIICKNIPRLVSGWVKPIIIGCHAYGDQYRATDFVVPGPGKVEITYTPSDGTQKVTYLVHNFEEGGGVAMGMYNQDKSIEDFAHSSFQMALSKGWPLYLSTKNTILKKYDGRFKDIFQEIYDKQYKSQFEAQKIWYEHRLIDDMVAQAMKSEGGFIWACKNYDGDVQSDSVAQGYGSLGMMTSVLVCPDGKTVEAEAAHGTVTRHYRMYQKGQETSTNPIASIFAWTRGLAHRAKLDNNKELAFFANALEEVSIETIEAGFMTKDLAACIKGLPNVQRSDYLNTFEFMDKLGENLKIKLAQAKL
Assay [1] relates to cell lines HT-1080 (IDH1^R132C). The assay is described as follows: Cellular assay: inhibition of 2HG production, LC-MS/MS. The class given is cell-based. To be noted: Homo sapiens, 72 hr incubation, 2-HG in cell culture media, read-out: HT1080 2-HG IC50. On the procedure: Cell lines HT-1080 (commercially available) are maintained in E-MEM 10% FCS and incubated at 37° C. in a humidified 5% CO2 atmosphere.
Cells are seeded into 96 well black flat bottom plates at a density of 500 cells/well in 100 μL complete medium. After 24 hr the medium is replaced with 200 μL of fresh medium and compounds (dissolved into DMSO) are administrated to the cells using D300E Digital Dispenser (Tecan).
After 72 hr of incubation 100 μL from each well are collected and used for 2HG (R(−)-2-hydroxyglutarate) quantification. Levels of 2-HG in cell culture media are determined by LC-MS/MS. Cell supernatants (100 μL/well) are treated with 1 M aqueous trichloroacetic acid containing 130 μM of the internal standard 2-HG-d3 (20 μL/well) in a 96-well plate. The plates are sealed, mildly vortexed for 60 minutes, centrifuged at 4,000 RPM for 15 minutes, placed in a refrigerated autosampler taking care not to shake them, and aliquots of the upper part of the samples are directly injected in the chromatographic system. Calibration standards are obtained by ten folds dilution of aqueous 2-HG stock solutions with blank cell culture medium and denatured exactly in the same way as described above for samples. Samples and standards are assayed for 2-HG by reversed phase chromatography on a C18 column eluted with aqueous 0.15% formic acid and briefly washed with 90% methanol at the end of the run. 2-HG is determined by negative ion electrospray ionization with the internal standard method on a triple quadrupole mass spectrometer monitoring the MRM transitions 147>129 (2-HG) and 150>132 (2-HG-d3).
2-HG inhibition was calculated by comparing treated versus control data using Assay Explore (Symyx) software, with IC50 determined using a sigmoidal fitting algorithm.

Another assay addresses T1, IDH2^R172K (Homo sapiens, UniProt P48735, R172K).
T1 sequence (P48735 40-452 R172K): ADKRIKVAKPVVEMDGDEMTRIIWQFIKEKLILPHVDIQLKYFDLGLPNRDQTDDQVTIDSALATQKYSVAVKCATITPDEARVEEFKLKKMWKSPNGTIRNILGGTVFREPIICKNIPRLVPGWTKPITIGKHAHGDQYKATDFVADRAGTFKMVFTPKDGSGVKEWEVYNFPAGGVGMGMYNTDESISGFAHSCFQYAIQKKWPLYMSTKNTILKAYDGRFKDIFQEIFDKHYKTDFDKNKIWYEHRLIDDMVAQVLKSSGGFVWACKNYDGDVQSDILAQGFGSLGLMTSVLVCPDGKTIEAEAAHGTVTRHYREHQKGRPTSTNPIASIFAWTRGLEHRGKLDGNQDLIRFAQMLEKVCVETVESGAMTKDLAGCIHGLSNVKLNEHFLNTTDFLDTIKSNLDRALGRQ
As to the kind of experiment: NADPH depletion assay (diaphorase/resazurin), IDH2 R172K. The class given is biochemical. To be noted: IDH2^R172K 16 nM, alpha-ketoglutarate 0.55 mM. As for the experimental part: as §1, §2
Compounds are assayed for their activity against IDH2^R172K following the same assay as above with the following modifications: IDH2^R172K and alpha-ketoglutarate final concentrations in the Assay Buffer is 16 nM and 0.55 mM, respectively.
In general terms: Resazurin is reduced to fluorescent resorufin, in cell work by metabolically active cells.

Sequence of IDH1 wild type enzyme (O75874 whole entry): as the sequence (O75874 whole entry R132C) above, with C132R counted along it
Sequence of IDH1^R132H (O75874 whole entry R132H, canonical isoform): as the sequence (O75874 whole entry R132C) above, with C132H counted along it

`C=CC(=O)N1CCN(C2(c3ccc([C@H](C)Nc4cc5c(ccc(=O)n5C(C)C)cn4)cc3)CCC(F)(F)CC2)CC1` [cpd 47, 7-{[(1S)-1-{4-[1-(4-acryloylpiperazin-1-yl)-4,4-difluorocyclohexyl]phenyl}ethyl]amino}-1-(propan-2-yl)-1,6-naphthyridin-2(1H)-one]: the IC50 (usually the concentration needed to halve the response being measured) on IDH1 wild type enzyme was 97.4 nM; at IDH1^R132H, 2 nM; on IDH1^R132C, 1 nM; in assay [1] it was 0.6 nM; on IDH2^R172K, 97 nM.
As to `C=CC(=O)N1CC(N(C)C2(c3ccc([C@H](C)Nc4ncc5ccc(=O)n(C(C)C)c5n4)cc3)CCC(F)(F)CC2)C1` [cpd 50, 2-{[(1S)-1-(4-{1-[(1-acryloylazetidin-3-yl)(methyl)amino]-4,4-difluorocyclohexyl}phenyl)ethyl]amino}-8-(propan-2-yl) pyrido[2,3-d]pyrimidin-7(8H)-one], the IC50 against IDH1 wild type enzyme turned out to be 516 nM; on IDH1^R132H, 20 nM; at IDH1^R132C, 5 nM; in assay [1], 10 nM; against IDH2^R172K, 516 nM.
On to `C=CC(=O)N1CCN(C2(c3ccc(C(C)(C)Nc4ncc5ccc(=O)n(C(C)C)c5n4)cc3)CCC(F)(F)CC2)CC1` [cpd 52, 2-[(2-{4-[1-(4-acryloylpiperazin-1-yl)-4,4-difluorocyclohexyl]phenyl}propan-2-yl)amino]-8-(propan-2-yl)pyrido[2,3-d]pyrimidin-7(8H)-one], for which the IC50 on IDH1 wild type enzyme came out at 321 nM; against IDH1^R132H it was 14 nM; at IDH1^R132C, 9 nM; in assay [1], 4 nM; against IDH2^R172K, 322 nM.
